This test deals with mice. Put plainly: Hypnotic activity: loss of righting reflex after intravenous injection in mice. It is filed as in vivo. Conditions: intravenous injection over 10 seconds, dose causing loss of righting reflex for minimum 30 seconds in 50% of treated mice; for ED50: Mus musculus, read-out: HD50 (hypnotic dose50). Here is the method: The hypnotic potency of the alanine 2,6-dialkoxyphenyl ester derivatives of the invention was determined upon their intravenous administration in mice. The dose required to cause a loss of righting reflex for a minimum period of 30 seconds in 50% of treated mice after intravenous injection over 10 seconds was determined. This dose is termed the HD50 (hypnotic dose50) and is expressed in μmol.kg^−1. These in vivo experiments were carried out as described in detail by Anderson et al., J. Med. Chem. 1997, 40, 1668–1681.

Take “2-[N-(Bis(2-methoxyethyl)amino)]-4-ethoxybutyric acid, 2,6-dimethoxy-4-methylphenyl ester [Example 10v]”: the “HD50 (hypnotic dose50)” value was determined as 41 µmol/kg.
On to “2-[N-(Hexahydroazepinyl)]-3-methoxypropionic acid, 2,6-dimethoxyphenyl ester [Example 3d]”, for which the “HD50 (hypnotic dose50)” value stood at 22 µmol/kg.
On the same count and under the same terms, with `COCC(C(=O)Oc1c(OC)cccc1OC)N1CCCOCC1` (stereo not shown) [Example 3a, 2-[4-(Hexahydro-1-oxazepinyl)]-3-methoxypropionic acid, 2,6-dimethoxyphenyl ester] the figure was 30 µmol/kg; with `COCCN(CCOC)C(COC)C(=O)Oc1c(OC)cccc1OC` (stereo not shown) [Example 3b, 2-[N-Bis(2-methoxyethyl)amino]-3-methoxypropionic acid, 2,6-dimethoxyphenyl ester], 41 µmol/kg.
For the molecule `COCC(C(=O)Oc1c(OC)cccc1OC)N1CCSCC1` (stereo not shown) [Example 3c, 3-Methoxy-2-[N-thiomorpholinyl]propionic acid, 2 ,6-dimethoxyphenyl ester], the “HD50 (hypnotic dose50)” value turned out to be 21 µmol/kg.
Consider `COCCCN(CCCOC)C(COC)C(=O)Oc1c(OC)cccc1OC` (stereo not shown) [Example 3f, 2-[N-Bis(3-methoxypropyl)amino]-3-methoxypropionic acid, 2,6-dimethoxyphenyl ester], for which the “HD50 (hypnotic dose50)” value worked out at 46 µmol/kg.
On the same count and under the same terms, for `CCOCCN(CCOCC)C(COC)C(=O)Oc1c(OC)cccc1OC` (stereo not shown) [Example 3g, 2-[N-Bis(3-ethoxyethyl)amino]-3-methoxypropionic acid, 2,6-dimethoxyphenyl ester] the value was 25 µmol/kg.
On to `COCCN(CCOC)C(COC)C(=O)Oc1c(OC)cc(C)cc1OC` (stereo not shown) [Example 3i, 2-[N-Bis(2-methoxyethyl)amino]-3-methoxypropionic acid, 2,6-dimethoxy-4-methylphenyl ester], for which the “HD50 (hypnotic dose50)” value stood at 28 µmol/kg.
In the case of `COCC(C(=O)Oc1c(OC)cc(C)cc1OC)N1CCSCC1` (stereo not shown) [Example 3j, 3-Methoxy-2-[N-thiomorpholinyl]propionic acid, 2,6-dimethoxy-4-methylphenyl ester], the ED50 is 42 µmol/kg.
In the case of `COCCN(C)C(COC)C(=O)Oc1c(OC)cc(C)cc1OC` (stereo not shown) [Example 3l, 3-Methoxy-2-[N-(2-Methoxyethyl)methylamino]propionic acid, 2,6-dimethoxy-4-methylphenyl ester], the ED50 was 58 µmol/kg.
As for `COCC(C(=O)Oc1c(OC)cc(C)cc1OC)N1CCCOCC1` (stereo not shown) [Example 3m, 2-[4-(Hexahydro-1-oxazepinyl)]-3-methoxypropionic acid, 2,6-dimethoxy-4-methylphenyl ester], the “HD50 (hypnotic dose50)” value was found to be 31 µmol/kg.
Turning to `COCC(C(=O)Oc1c(OC)cc(C)cc1OC)N1CCCC1` (stereo not shown) [Example 3n, 3-Methoxy-2-[1-pyrrolidinyl]propionic acid, 2,6-dimethoxy-4-methylphenyl ester], the ED50 is 34 µmol/kg.
For `COCCCN(CCCOC)C(COC)C(=O)Oc1c(OC)cc(C)cc1OC` (stereo not shown) [Example 3p, 2-[N-Bis(3-methoxypropyl)amino]-3-methoxypropionic acid, 2,6-dimethoxy-4-methylphenyl ester], the “HD50 (hypnotic dose50)” value was determined as 46 µmol/kg.
For `CCOCCN(CCOCC)C(COC)C(=O)Oc1c(OC)cc(C)cc1OC` (stereo not shown) [Example 3q, 2-[N-Bis(2-ethoxyethyl)amino]-3-methoxypropionic acid, 2,6-dimethoxy-4-methylphenyl ester], the “HD50 (hypnotic dose50)” value amounted to 23 µmol/kg.
Still for that read-out and setting: with `CCOCC(C(=O)Oc1c(OC)cccc1OC)N1CCCOCC1` (stereo not shown) [Example 3r, 3-Ethoxy-2-[4-(Hexahydro-1-oxazepinyl)]propionic acid, 2,6-dimethoxyphenyl ester] the figure was 20 µmol/kg; with `COCCN(CCOC)C(COC)C(=O)Oc1c(OC)cc(C)cc1OC` (stereo not shown) [Example 4a, 2-[N-Bis(2-methoxyethyl)amino]-3-methoxypropionic acid, 2,6-dimethoxy-4-methylphenyl ester], 28 µmol/kg.

Source of the values: patent US7141560B2, “Alanine 2,6-dialkoxyphenyl ester derivatives as hypnotics” (Akzo Nobel N.V., priority 2001, dated 2006).
